Read-outs that look alike come from different tables or passages of the source.
What was measured:
[1] = test system: HCV genotype 1a (H77 strain) replicon in HUH-7 cells; experiment: HCV replicon luciferase reporter assay, genotype 1a; format: cell-based; details: Hepatitis C virus, Huh-7, 72 h, 3 days incubation
Outline: (§1)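 Replicon inhibition for both genotypes was measured as Renilla luciferase signal (EnduRen, 7.5 μM final, 2 h) after 3-day, 37° C exposure of replicon-bearing HUH-7 cells in 4% FCS DMEM, 0.5% DMSO. The 1b construct carries S1179I; the 1a H77 construct carries P1496L and S2204I. Twenty-point, 3-fold dilutions were fitted four-parametrically for EC50, and CC50 was taken from multiplexed Cell Titer-Blue.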

[2] = test system: HCV genotype 1b (Con1) replicon in HUH-7 cells; experiment: HCV replicon luciferase reporter assay, genotype 1b; format: cell-based; details: Hepatitis C virus, Huh-7, 72 h, 3 days incubation
Outline: as §1

[3] = HCV genotype 1a replicon luciferase assay, range class, read-out: LE_1a (EC50, range)
[4] = HCV genotype 1b replicon luciferase assay, range class, read-out: LE_1b (EC50, range)
[5] = HCV genotype 1a replicon luciferase, read-out: LE_1a (EC50, range)
[6] = HCV genotype 1b replicon luciferase, read-out: LE_1b (EC50, range)

SMILES: COc1ccc2c(O[C@@H]3C[C@H]4C(=O)N[C@]5(C(=O)NS(=O)(=O)C6(C)CC6)C[C@H]5/C=C\CC[C@@H](C)C[C@@H](C)[C@H](NC(=O)OCC5(C)CC5)C(=O)N4C3)nc(-c3ccc(F)cc3)cc2c1 [Compound 3085, (1-methylcyclopropyl)methyl ((2R,6S,7R,9R,13aS,14aR,16aS,Z)-2-((3-(4-fluorophenyl)-6-methoxyisoquinolin-1-yl)oxy)-7,9-dimethyl-14a-(((1-methylcyclopropyl)sulfonyl)carbamoyl)-5,16-dioxo-1,2,3,5,6,7,8,9,10,11,13a,14,14a,15,16,16a-hexadecahydrocyclopropa[e]pyrrolo[1,2-a][1,4]diazacyclopentadecin-6-yl)carbamate]
- EC50 [1, 3]: < 5.46 nM
- EC50 [2, 4]: < 5.46 nM

SMILES: COc1ccc2c(O[C@@H]3C[C@H]4C(=O)N[C@]5(C(=O)NS(=O)(=O)C6CC6)C[C@H]5/C=C\CC[C@@H](C)C[C@@H](C)[C@H](NC(=O)OC(C)(C)C(F)(F)F)C(=O)N4C3)nc(N3CCOCC3)cc2c1 [Compound 3099, 1,1,1-trifluoro-2-methylpropan-2-yl((2R,6S,7R,9R,13aS,14aR,16aS,Z)-14a-((cyclopropylsulfonyl)carbamoyl)-2-((6-methoxy-3-morpholinoisoquinolin-1-yl)oxy)-7,9-dimethyl-5,16-dioxo-1,2,3,5,6,7,8,9,10,11,13a,14,14a,15,16,16a-hexadecahydrocyclopropa[e]pyrrolo[1,2-a][1,4]diazacyclopentadecin-6-yl)carbamate]
- EC50 [1, 3]: < 5.46 nM
- EC50 [2, 4]: < 5.46 nM

SMILES: C[C@H]1CC/C=C\[C@@H]2C[C@@]2(C(=O)NS(=O)(=O)C2(C)CC2)NC(=O)[C@@H]2C[C@@H](Oc3nccc4c5c(ccc34)OCCO5)CN2C(=O)[C@@H](NC(=O)OC(C)(C)C(F)(F)F)[C@H](C)C1 [Compound 5246, 1,1,1-trifluoro-2-methylpropan-2-yl((2R,6S,7R,9S,13aS,14aR,16aS,Z)-2-((2,3-dihydro-[1,4]dioxino[2,3-f]isoquinolin-7-yl)oxy)-7,9-dimethyl-14a-(((1-methylcyclopropyl)sulfonyl)carbamoyl)-5,16-dioxo-1,2,3,5,6,7,8,9,10,11,13a,14,14a,15,16,16a-hexadecahydrocyclopropa[e]pyrrolo[1,2-a][1,4]diazacyclopentadecin-6-yl)carbamate]
- EC50 [1, 5]: 4.82 to 103 nM
- EC50 [2, 6]: 4.82 to 103 nM

SMILES: COc1ccc2c(O[C@@H]3C[C@H]4C(=O)N[C@]5(C(=O)NS(=O)(=O)C6CC6)C[C@H]5/C=C\CC[C@@H](C)C[C@@H](C)[C@H](NC(=O)OC(C)(C)C(F)(F)F)C(=O)N4C3)nc(-c3ccc(N4CCOCC4)cc3)cc2c1 [Compound 5197, 1,1,1-trifluoro-2-methylpropan-2-yl((2R,6S,7R,9R,13aS,14aR,16aS,Z)-14a-((cyclopropylsulfonyl)carbamoyl)-2-((6-methoxy-3-(4-morpholinophenyl)isoquinolin-1-yl)oxy)-7,9-dimethyl-5,16-dioxo-1,2,3,5,6,7,8,9,10,11,13a,14,14a,15,16,16a-hexadecahydrocyclopropa[e]pyrrolo[1,2-a][1,4]diazacyclopentadecin-6-yl)carbamate]
- EC50 [1, 5]: < 5.46 nM
- EC50 [2, 6]: < 5.46 nM

SMILES: C[C@@H]1CC/C=C\[C@@H]2C[C@@]2(C(=O)NS(=O)(=O)C2(C)CC2)NC(=O)[C@@H]2C[C@@H](Oc3nccc4c5c(ccc34)N(C)CCO5)CN2C(=O)[C@@H](NC(=O)C(=O)N(C)C)[C@H](C)C1 [Compound 5306, N1-((2R,6S,7R,9R,13aS,14aR,16aS,Z)-7,9-dimethyl-2-((4-methyl-3,4-dihydro-2H-[1,4]oxazino[2,3-f]isoquinolin-7-yl)oxy)-14a-(((1-methylcyclopropyl)sulfonyl)carbamoyl)-5,16-dioxo-1,2,3,5,6,7,8,9,10,11,13a,14,14a,15,16,16a-hexadecahydrocyclopropa[e]pyrrolo[1,2-a][1,4]diazacyclopentadecin-6-yl)-N2,N2-dimethyloxalamide]
- EC50 ([1]; HCV genotype 1a replicon luciferase, read-out: LE_1a (EC50)): 2.97 nM
- EC50 [1, 5]: < 5.46 nM
- EC50 ([2]; HCV genotype 1b replicon luciferase, read-out: LE_1b (EC50)): 2.45 nM
- EC50 [2, 6]: < 5.46 nM

SMILES: COc1cc(F)cc2c(O[C@@H]3C[C@H]4C(=O)N[C@]5(C(=O)NS(=O)(=O)C6(C)CC6)C[C@H]5/C=C\CC[C@H](C)C[C@@H](C)[C@H](NC(=O)OC(C)(C)C)C(=O)N4C3)nccc12 [Compound 3153, tert-butyl ((2R,6S,7R,9S,13aS,14aR,16aS,Z)-2-((7-fluoro-5-methoxyisoquinolin-1-yl)oxy)-7,9-dimethyl-14a-(((1-methylcyclopropyl)sulfonyl)carbamoyl)-5,16-dioxo-1,2,3,5,6,7,8,9,10,11,13a,14,14a,15,16,16a-hexadecahydrocyclopropa[e]pyrrolo[1,2-a][1,4]diazacyclopentadecin-6-yl)carbamate]
- EC50 [1, 3]: 4.82 to 103 nM
- EC50 [2, 4]: 4.82 to 103 nM

SMILES: C[C@@H]1CC/C=C\[C@@H]2C[C@@]2(C(=O)NS(=O)(=O)C2(C)CC2)NC(=O)[C@@H]2C[C@@H](Oc3nccc4c5c(ccc34)N(C)CCO5)CN2C(=O)[C@@H](NC(=O)OC(C)(C)C)[C@H](C)C1 [Compound 5294, tert-butyl ((2R,6S,7R,9R,13aS,14aR,16aS,Z)-7,9-dimethyl-2-((4-methyl-3,4-dihydro-2H-[1,4]oxazino[2,3-f]isoquinolin-7-yl)oxy)-14a-(((1-methylcyclopropyl)sulfonyl)carbamoyl)-5,16-dioxo-1,2,3,5,6,7,8,9,10,11,13a,14,14a,15,16,16a-hexadecahydrocyclopropa[e]pyrrolo[1,2-a][1,4]diazacyclopentadecin-6-yl)carbamate]
- EC50 [1, 5]: < 5.46 nM
- EC50 [2, 6]: < 5.46 nM

SMILES: COc1ccc2c(O[C@@H]3C[C@H]4C(=O)N[C@]5(C(=O)NS(=O)(=O)C6(C)CC6)C[C@H]5/C=C\CC[C@@H](C)C[C@@H](C)[C@H](NC(=O)OC(C)(C)C)C(=O)N4C3)ncc(N3C[C@@H](C)O[C@@H](C)C3)c2c1 [Compound 4131, tert-butyl (2R,6S,7R,9R,13aS,14aR,16aS,Z)-2-(4-((2S,6R)-2,6-dimethylmorpholino)-6-methoxyisoquinolin-1-yloxy)-7,9-dimethyl-14a-(1-methylcyclopropylsulfonylcarbamoyl)-5,16-dioxo-1,2,3,5,6,7,8,9,10,11,13a,14,14a,15,16,16a-hexadecahydrocyclopropa[e]pyrrolo[1,2-a][1,4]diazacyclopentadecin-6-ylcarbamate]
- EC50 [1, 5]: < 5.46 nM
- EC50 [2, 6]: < 5.46 nM

SMILES: C[C@@H]1CC/C=C\[C@@H]2C[C@@]2(C(=O)NS(=O)(=O)C2(C)CC2)NC(=O)[C@@H]2C[C@@H](Oc3ncc(OCC(F)F)c4ccccc34)CN2C(=O)[C@@H](NC(=O)OC(C)(C)C(F)(F)F)[C@H](C)C1 [Compound 1030, 1,1,1-trifluoro-2-methylpropan-2-yl((2R,6S,7R,9R,13aS,14aR,16aS,Z)-2-((4-(2,2-difluoroethoxyl)isoquinolin-1-yl)oxy)-7,9-dimethyl-14a-(((1-methylcyclopropyl)sulfonyl)carbamoyl)-5,16-dioxo-1,2,3,5,6,7,8,9,10,11,13a,14,14a,15,16,16a-hexadecahydrocyclopropa[e]pyrrolo[1,2-a][1,4]diazacyclopentadecin-6-yl)carbamate]
- EC50 [1, 3]: < 5.46 nM
- EC50 [2, 4]: < 5.46 nM

SMILES: CCN(C)c1cc2cc(OC)ccc2c(O[C@@H]2C[C@H]3C(=O)N[C@]4(C(=O)NS(=O)(=O)C5(CF)CC5)C[C@H]4/C=C\CC[C@H](C)C[C@@H](C)[C@H](NC(=O)OC(C)(C)C(C)(F)F)C(=O)N3C2)n1 [Compound 1138, 3,3-difluoro-2-methylbutan-2-yl((2R,6S,7R,9S,13aS,14aR,16aS,Z)-2-((3-(ethyl(methyl)amino)-6-methoxyisoquinolin-1-yl)oxy)-14a-(((1-(fluoromethyl)cyclopropyl)sulfonyl)carbamoyl)-7,9-dimethyl-5,16-dioxo-1,2,3,5,6,7,8,9,10,11,13a,14,14a,15,16,16a-hexadecahydrocyclopropa[e]pyrrolo[1,2-a][1,4]diazacyclopentadecin-6-yl)carbamate]
- EC50 [1, 3]: > 87.4 nM
- EC50 [2, 4]: > 87.4 nM

SMILES: C[C@H]1CC/C=C\[C@@H]2C[C@@]2(C(=O)NS(=O)(=O)C2(C)CC2)NC(=O)[C@@H]2C[C@@H](Oc3nccc4c5c(ccc34)N(C)CCO5)CN2C(=O)[C@@H](NC(=O)C(=O)N(C)C)[C@H](C)C1 [Compound 5305, N1-((2R,6S,7R,9S,13aS,14aR,16aS,Z)-7,9-dimethyl-2-((4-methyl-3,4-dihydro-2H-[1,4]oxazino[2,3-f]isoquinolin-7-yl)oxy)-14a-(((1-methylcyclopropyl)sulfonyl)carbamoyl)-5,16-dioxo-1,2,3,5,6,7,8,9,10,11,13a,14,14a,15,16,16a-hexadecahydrocyclopropa[e]pyrrolo[1,2-a][1,4]diazacyclopentadecin-6-yl)-N2,N2-dimethyloxalamide]
- EC50 [1, 5]: 4.82 to 103 nM
- EC50 [2, 6]: 4.82 to 103 nM

SMILES: C[C@H]1CC/C=C\[C@@H]2C[C@@]2(C(=O)NS(=O)(=O)C2(C)CC2)NC(=O)[C@@H]2C[C@@H](Oc3nccc4c5c(ccc34)N(C)CCO5)CN2C(=O)[C@@H](NC(=O)OC(C)(C)C)[C@H](C)C1 [Compound 5293, tert-butyl ((2R,6S,7R,9S,13aS,14aR,16aS,Z)-7,9-dimethyl-2-((4-methyl-3,4-dihydro-2H-[1,4]oxazino[2,3-f]isoquinolin-7-yl)oxy)-14a-(((1-methylcyclopropyl)sulfonyl)carbamoyl)-5,16-dioxo-1,2,3,5,6,7,8,9,10,11,13a,14,14a,15,16,16a-hexadecahydrocyclopropa[e]pyrrolo[1,2-a][1,4]diazacyclopentadecin-6-yl)carbamate]
- EC50 [1, 5]: 4.82 to 103 nM
- EC50 [2, 6]: < 5.46 nM

— patent US9499550B2 (BRISTOL-MYERS SQUIBB COMPANY, priority 2012, dated 2016)
